Measurements: publication PMC12017303 (Science Advances, 2025)
Values after ≈ are worked out from the molar mass of the structure shown.

Key:
[1] = in vitro; conditions: human
[2] = molecular target: T1, SARS-CoV-2 M^Pro (Severe acute respiratory syndrome coronavirus 2, UniProt P0DTD1); test: biochemical
[3] = in vitro; conditions: PAMPA, pH 7.4
[4] = test system: human cytochrome P450 (CYP) isoforms
[5] = test system: SARS-CoV-2 WA.1 (icSARS-CoV-2-mNG) in A549-ACE2^h; test: microbe, parasite or virus in culture; format: cell-based; conditions: Severe acute respiratory syndrome coronavirus 2, read-out: Viral replication in A549-ACE2^h EC50: WA.1
[6] = test system: SARS-CoV-2 WA.1 replicon in Vero ACE2 TMPRSS2; test: microbe, parasite or virus in culture; format: cell-based; conditions: Severe acute respiratory syndrome coronavirus 2, Vero, read-out: Replicon replication in Vero ACE2 TMPRSS2 EC50: WA.1
[7] = test system: SARS-CoV-2 BA.2.86.1 replicon in Vero ACE2 TMPRSS2; test: microbe, parasite or virus in culture; format: cell-based; conditions: Severe acute respiratory syndrome coronavirus 2, Vero, read-out: Replicon replication in Vero ACE2 TMPRSS2 EC50: BA.2.86.1
[8] = molecular target: SARS-CoV-2 M^Pro (Cys^145) (Severe acute respiratory syndrome coronavirus 2, UniProt P0DTD1); format: binding
[9] = in vitro; conditions: plasma
[10] = molecular target: T1, SARS-CoV-2 M^Pro; format: biochemical
[11] = molecular target: T1, SARS-CoV-2 M^Pro; test: biochemical; remark: listed apart in the source
[12] = in vitro; conditions: mouse, microsomes, pH 7.4
[13] = in vitro; conditions: human, microsomes, pH 7.4
[14] = molecular target: SARS-CoV-1 M^Pro (Severe acute respiratory syndrome coronavirus, UniProt P0C6X7); test: biochemical
[15] = physchem; conditions: pH 7.4, aqueous buffer, kinetic from dmso stock
[16] = male, CD-1, mouse, in vivo
[17] = in vivo
[18] = in vivo; conditions: mouse
[19] = molecular target: CYP2C8 (Homo sapiens, UniProt P10632); conditions: 10 μM
[20] = in vivo; conditions: male, CD-1, mouse; for AUC(0-t): AUClast
[21] = test system: P-gp (MDR1); test: in vitro; conditions: dog
[22] = test system: Huh7
[23] = test system: HCoV Alpha 229E; test: organism not typed; format: cell-based, HCoV 229E; design: SI50 / SI90: unit not given beside the values
[24] = test system: Rhabdomyosarcoma
[25] = test system: SARS-CoV-2 BA.2 (omicron); test: microbe, parasite or virus in culture; format: cell-based; design: SI50 / SI90: unit not given beside the values
[26] = test system: HCoV Beta OC43; test: microbe, parasite or virus in culture; format: cell-based; design: SI90 / SI50: unit not given beside the values
[27] = test system: SARS-CoV-2 B.1.617.2 (delta); format: cell-based; design: SI50 / SI90: unit not given beside the values
[28] = test system: SARS-CoV Urbani; test: microbe, parasite or virus in culture; format: cell-based; design: SI90 / SI50: unit not given beside the values
[29] = test system: MERS-CoV EMC; test: microbe, parasite or virus in culture; format: cell-based; design: SI50 / SI90: unit not given beside the values
[30] = pH 7.4, plasma protein binding (PPB)
[31] = Severe acute respiratory syndrome coronavirus, Vero C1008
[32] = Middle East respiratory syndrome-related coronavirus, Vero C1008

Sequence of CYP2C8 (P10632 whole entry): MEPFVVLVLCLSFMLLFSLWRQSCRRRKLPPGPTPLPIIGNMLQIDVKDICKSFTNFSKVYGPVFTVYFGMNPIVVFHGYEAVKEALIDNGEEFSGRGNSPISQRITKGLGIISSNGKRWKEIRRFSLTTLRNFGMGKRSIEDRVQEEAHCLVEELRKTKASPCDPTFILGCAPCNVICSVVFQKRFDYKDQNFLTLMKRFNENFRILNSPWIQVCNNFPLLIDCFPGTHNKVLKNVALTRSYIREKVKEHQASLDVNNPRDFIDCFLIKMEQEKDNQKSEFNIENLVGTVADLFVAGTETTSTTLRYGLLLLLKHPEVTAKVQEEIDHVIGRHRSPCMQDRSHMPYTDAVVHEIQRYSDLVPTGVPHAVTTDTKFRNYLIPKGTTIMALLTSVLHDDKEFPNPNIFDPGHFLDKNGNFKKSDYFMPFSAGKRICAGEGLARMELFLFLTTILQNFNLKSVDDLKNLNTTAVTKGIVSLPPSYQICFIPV

For O=C1CCN(Cc2cccs2)C(=O)N1Cc1ccc[nH]c1=O [AVI-1084], the CC50 [1] was > 100000 nM and the viability at 100 µM [1] was 100%.
For O=C1CCN(Cc2cc(Cl)cs2)C(=O)N1Cc1ccc[nH]c1=O [AVI-3318], the CC50 [1] was > 100000 nM, the viability at 100 µM [1] was 88.9% and the IC50 [2] was 4600 nM.
For O=C1CCN(Cc2ccsc2)C(=O)N1Cc1ccc[nH]c1=O [AVI-3320], the CC50 [1] was > 100000 nM, the viability at 100 µM [1] was 100% and the IC50 [2] was 23000 nM.
For O=C1CCN(Cc2csc(Cl)c2)C(=O)N1Cc1ccc[nH]c1=O [AVI-3570], the CC50 [1] was > 100000 nM, the viability at 100 µM [1] was 100% and the IC50 [2] was 1500 nM.
In the case of O=C1CCN(Cc2csc(Cl)c2)C(=O)N1c1cncc2ccccc12 [AVI-3778], the CC50 [1] is reported as > 100000 nM, the viability at 100 µM [1] is reported as 95.7% and the IC50 [2] is reported as 850 nM. For the same compound, the “M^Pro inhibition, result in words” value [2] was “submicromolar potencies” and the Papp [3] was 26.4 ×10⁻⁶ cm/s.
For O=C1CCN(Cc2cccc(Cl)c2)C(=O)N1c1cncc2ccccc12 [AVI-3779], the CC50 [1] was > 100000 nM, the viability at 100 µM [1] was 100% and the IC50 [2] was 660 nM. The “M^Pro inhibition, result in words” value [2] was “submicromolar potencies” and the Papp [3] was 23.9 ×10⁻⁶ cm/s.
In the case of O=C1CCN(Cc2cccc(F)c2)C(=O)N1c1cncc2ccccc12 [AVI-3780], the CC50 [1] is reported as > 100000 nM, the viability at 100 µM [1] is reported as 100% and the IC50 [2] is reported as 800 nM. The “M^Pro inhibition, result in words” value [2] was “submicromolar potencies” and the Papp [3] was 19.6 ×10⁻⁶ cm/s.
In the case of O=C1CCN(Cc2cccc(Cl)c2)C(=O)N1Cc1ccc[nH]c1=O [AVI-3993], the IC50 [2] is reported as 8500 nM.
For O=c1cc(-c2cccc(Cl)c2)[nH]c(=O)n1-c1cncc2ccccc12 [AVI-4301], the CC50 [1] was > 100000 nM, the viability at 100 µM [1] was 100% and the IC50 [2] was 6400 nM. The Papp [3] was 31.8 ×10⁻⁶ cm/s.
For O=c1[nH]c(-c2cccc(Cl)c2)c(-n2nnc3ccccc32)c(=O)n1-c1cncc2ccccc12 [AVI-4303], the CC50 [1] was > 100000 nM, the viability at 100 µM [1] was 92.3% and the IC50 [2] was 300 nM. The Papp [3] was 6.6 ×10⁻⁶ cm/s.
In the case of C#CCn1c(-c2cccc(Cl)c2)c(-n2nnc3ccccc32)c(=O)n(-c2cncc3ccccc23)c1=O [AVI-4692], the “CYP inhibition, result in words” value ([4]; 10 μM) is reported as “somewhat more potent inhibitor of both CYP2C8 and CYP3A4”, the EC50 [5] is reported as 6.8 nM and the EC50 [6] is reported as 26 nM. For the same compound, the EC50 [7] was 27 nM, the “covalent adduct by whole protein MS” value [8] was “mass shifts consistent with modification at a single site” and the fraction unbound [9, 30] was < 0.01. The “M^Pro activity after dialysis” value [10] was “activity was not regained”, the IC50 [2] was 37 nM and the kinact/KI [11] was 27000 M⁻¹ s⁻¹. For the same compound, the half-life [12] was > 2 h, the Papp [3] was 31.8 ×10⁻⁶ cm/s and the half-life [13] was > 2 h. It also gave an IC50 [14] of 120 nM.
In the case of C#CCn1c(C)c(-n2nnc3cc(F)c(F)cc32)c(=O)n(-c2cncc3ccccc23)c1=O [AVI-4773], the “inhibition across the CYP panel” value ([4]; human, pH 7.4) is reported as ≤ 25%, the solubility [15] is reported as 431 µM (≈ 192 µg/mL) and the “Mouse F” value [16] is reported as 110. The “free concentration in plasma” value [16] was 4.045 µM, the AUClast ([16]; po, 50 mg/kg) was 94700 ng·h/mL and the “Plasma T½” value ([16]; po, 50 mg/kg) was 13 h. It also gave an EC50 [5] of 19 nM, an EC50 [6] of 60 nM and an EC50 [7] of 49 nM. For the same compound, the “exposure in BALF” value ([17]; mouse, po) was ~ 4400 nM, the Kp [18] was ~0.08 and the “covalent adduct by whole protein MS” value [8] was “mass shifts consistent with modification at a single site”. The fraction unbound ([9]; pH 7.4, PPB) was 0.19, the fraction unbound [9, 30] was 0.17 and the “M^Pro activity after dialysis” value [10] was “activity was not regained”. For the same compound, the CYP2C8 inhibition [19] was ~ 45%, the half-life [12] was > 2 h and the half-life [13] was > 2 h. The bioavailability ([20]; F) was 110%, the MRT inf ([20]; iv, 10 mg/kg) was 2.06 h and the clearance ([20]; iv, 10 mg/kg) was 9.57 mL/min/kg. For the same compound, the half-life ([20]; iv, 10 mg/kg) was 1.22 h, the AUC(0-inf) ([20]; iv, 10 mg/kg, AUCINF) was 17400 ng·h/mL and the AUC(0-t) ([20]; iv, 10 mg/kg) was 17200 ng·h/mL. The Vd ([20]; iv, 10 mg/kg, Vss) was 1.18 L/kg, the bioavailability ([20]; oral bioavailability (%F)) was > 100% and the half-life ([20]; po, 50 mg/kg) was 13 h. For the same compound, the AUC(0-inf) ([20]; po, 50 mg/kg, AUCINF) was 273000 ng·h/mL, the AUC(0-inf) ([20]; po, 50 mg/kg, AUCinf) was 272000 ng·h/mL and the AUC(0-t) ([20]; po, 50 mg/kg) was 94700 ng·h/mL. For the same compound, the Cmax ([20]; po, 50 mg/kg, CMax) was 14900 ng/mL, the Cmax ([20]; po, 50 mg/kg, Cmax) was 14900 ng/mL and the Tmax ([20]; po, 50 mg/kg, TMax) was 0.5 h. For the same compound, the Tmax ([20]; po, 50 mg/kg, Tmax) was 0.5 h, the IC50 [14] was 95 nM and the Papp B→A ([21]; MDCK-MDR1) was 70.8 ×10⁻⁶ cm/s. It also gave a Papp A→B ([21]; MDCK-MDR1, MDCK AB) of 17.8 ×10⁻⁶ cm/s.
In the case of O=c1nc(NO)ccn1[C@@H]1O[C@H](CO)[C@@H](O)[C@H]1O [EIDD-1931, reference compound], the CC50 [22] is reported as > 10000 nM, the SI50 [23] is reported as > 23 and the SI90 [23] is reported as > 27. It also gave an EC50 ([23]; read-out: EC50) of 440 nM, an EC90 ([23]; read-out: EC90) of 370 nM and a CC50 [24] of 6100 nM. The SI50 [25] was 810, the SI90 [25] was 1000 and the EC50 ([25]; read-out: EC50) was 53 nM. The EC90 ([25]; read-out: EC90) was 43 nM, the SI50 [26] was 170 and the SI90 [26] was 190. It also gave an EC50 ([26]; read-out: EC50) of 35 nM, an EC90 ([26]; read-out: EC90) of 32 nM and an EC50 [27] of 170 nM. For the same compound, the EC90 [27] was 50 nM, the SI50 [27] was 210 and the SI90 [27] was 720.
With Cn1cnc(Cn2c(=O)[nH]/c(=N\c3cc4cn(C)nc4cc3Cl)n(Cc3cc(F)c(F)cc3F)c2=O)n1 [ensitrelvir, reference compound] the “Brain, Mean” value ([17]; CD1, mouse) was 47.9 ng/g.
With CCC(CC)COC(=O)[C@H](C)N[P@](=O)(OC[C@H]1O[C@@](C#N)(c2ccc3c(N)ncnn23)[C@H](O)[C@@H]1O)Oc1ccccc1 [remdesivir, reference compound] the SI50 [28] was > 83, the SI90 [28] was > 71 and the EC50 [28, 31] was 120 nM. For the same compound, the EC90 [28, 31] was 140 nM, the SI50 [29] was 540 and the SI90 [29] was 51. For the same compound, the EC50 [29, 32] was 3.7 nM and the EC90 [29, 32] was 39 nM.
